pIC50: −log10 of the molar value.

The target in experiment [1] is Mitogen-activated protein kinase 4 (Homo sapiens) (UniProt P31152). The note with it: at 10 µM.
Experiment [2] addresses T1, Serine/threonine-protein kinase 17B (Homo sapiens) (UniProt O94768).
T1 sequence (whole entry): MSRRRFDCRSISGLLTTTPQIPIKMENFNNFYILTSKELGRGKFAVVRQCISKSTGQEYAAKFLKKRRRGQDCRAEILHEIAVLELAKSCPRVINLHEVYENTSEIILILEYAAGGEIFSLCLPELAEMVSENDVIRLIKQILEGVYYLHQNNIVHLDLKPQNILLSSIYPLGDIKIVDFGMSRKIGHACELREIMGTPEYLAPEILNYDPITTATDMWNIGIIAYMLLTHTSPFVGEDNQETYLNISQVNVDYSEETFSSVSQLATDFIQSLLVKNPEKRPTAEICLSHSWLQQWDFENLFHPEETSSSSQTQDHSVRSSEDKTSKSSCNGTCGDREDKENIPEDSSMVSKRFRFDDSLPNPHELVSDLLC
Briefly: Selectivity interaction (KinomeScan (DiscoverX)) EUB0000666a STK17B. The note with it: at 10 µM.

For experiment [3], the target named is 5'-AMP-activated protein kinase catalytic subunit alpha-2 (Homo sapiens) (UniProt P54646). The experiment can be described thus: Selectivity interaction (ActivX KiNativ screen (kinase selectivity in THP-1 cell lysates)) EUB0000639a PRKAA2. As to conditions: lysate, at 1 µM. Type of experiment: subcellular.
5'-AMP-activated protein kinase catalytic subunit alpha-2 (Homo sapiens), sequence (P54646 whole entry, looked up): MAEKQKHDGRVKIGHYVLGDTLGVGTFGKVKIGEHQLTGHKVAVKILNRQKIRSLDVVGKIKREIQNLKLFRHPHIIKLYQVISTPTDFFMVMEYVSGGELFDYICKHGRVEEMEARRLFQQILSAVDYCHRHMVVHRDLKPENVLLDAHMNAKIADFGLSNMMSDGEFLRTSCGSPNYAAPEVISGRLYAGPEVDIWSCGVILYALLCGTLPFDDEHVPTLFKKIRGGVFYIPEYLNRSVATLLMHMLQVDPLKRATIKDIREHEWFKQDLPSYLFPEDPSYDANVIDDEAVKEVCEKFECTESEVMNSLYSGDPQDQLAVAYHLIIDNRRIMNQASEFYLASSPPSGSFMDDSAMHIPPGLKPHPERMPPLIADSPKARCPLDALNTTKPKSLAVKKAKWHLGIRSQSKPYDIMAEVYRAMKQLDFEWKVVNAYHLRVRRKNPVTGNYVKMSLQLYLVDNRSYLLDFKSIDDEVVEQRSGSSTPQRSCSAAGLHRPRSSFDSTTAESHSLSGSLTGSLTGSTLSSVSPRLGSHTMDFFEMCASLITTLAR
For experiment [4], the target named is T2, Serine/threonine-protein kinase D3 (Homo sapiens) (UniProt O94806).
T2 sequence (whole entry): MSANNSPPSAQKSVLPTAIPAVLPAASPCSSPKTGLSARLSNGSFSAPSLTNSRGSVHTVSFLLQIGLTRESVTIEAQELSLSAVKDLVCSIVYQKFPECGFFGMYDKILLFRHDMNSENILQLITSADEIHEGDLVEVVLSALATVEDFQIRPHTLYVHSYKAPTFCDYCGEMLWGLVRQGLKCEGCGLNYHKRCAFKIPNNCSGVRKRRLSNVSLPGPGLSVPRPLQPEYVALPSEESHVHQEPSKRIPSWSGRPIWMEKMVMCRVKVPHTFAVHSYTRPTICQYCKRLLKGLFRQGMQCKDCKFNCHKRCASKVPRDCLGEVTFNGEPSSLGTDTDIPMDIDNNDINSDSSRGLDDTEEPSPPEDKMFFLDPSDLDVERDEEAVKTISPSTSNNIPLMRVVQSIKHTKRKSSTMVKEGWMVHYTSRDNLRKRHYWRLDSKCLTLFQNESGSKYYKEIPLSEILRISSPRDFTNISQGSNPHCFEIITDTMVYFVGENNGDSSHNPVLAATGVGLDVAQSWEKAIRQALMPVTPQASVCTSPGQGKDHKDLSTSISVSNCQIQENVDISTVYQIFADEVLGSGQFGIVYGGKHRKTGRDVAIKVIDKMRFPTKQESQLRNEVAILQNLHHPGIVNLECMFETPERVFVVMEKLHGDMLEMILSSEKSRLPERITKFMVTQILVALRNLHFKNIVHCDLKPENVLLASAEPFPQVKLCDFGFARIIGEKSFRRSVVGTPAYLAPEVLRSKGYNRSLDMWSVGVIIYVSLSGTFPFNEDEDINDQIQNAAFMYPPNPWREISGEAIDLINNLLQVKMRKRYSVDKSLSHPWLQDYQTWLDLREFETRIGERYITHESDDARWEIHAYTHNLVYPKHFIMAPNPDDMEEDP
Briefly: Selectivity interaction (ProQinase) EUB0000171b PRKD3.

Experiment [5] concerns the target Proto-oncogene tyrosine-protein kinase receptor Ret (Homo sapiens, UniProt P07949).
In experiment [6] the target is Serine/threonine-protein kinase WNK2 (Homo sapiens) (UniProt Q9Y3S1). The experiment can be described thus: Selectivity interaction (KinomeScan (DiscoverX)) EUB0001049a WNK2. As to conditions: at 1 µM.
Serine/threonine-protein kinase WNK2 (Homo sapiens), sequence (Q9Y3S1 whole entry): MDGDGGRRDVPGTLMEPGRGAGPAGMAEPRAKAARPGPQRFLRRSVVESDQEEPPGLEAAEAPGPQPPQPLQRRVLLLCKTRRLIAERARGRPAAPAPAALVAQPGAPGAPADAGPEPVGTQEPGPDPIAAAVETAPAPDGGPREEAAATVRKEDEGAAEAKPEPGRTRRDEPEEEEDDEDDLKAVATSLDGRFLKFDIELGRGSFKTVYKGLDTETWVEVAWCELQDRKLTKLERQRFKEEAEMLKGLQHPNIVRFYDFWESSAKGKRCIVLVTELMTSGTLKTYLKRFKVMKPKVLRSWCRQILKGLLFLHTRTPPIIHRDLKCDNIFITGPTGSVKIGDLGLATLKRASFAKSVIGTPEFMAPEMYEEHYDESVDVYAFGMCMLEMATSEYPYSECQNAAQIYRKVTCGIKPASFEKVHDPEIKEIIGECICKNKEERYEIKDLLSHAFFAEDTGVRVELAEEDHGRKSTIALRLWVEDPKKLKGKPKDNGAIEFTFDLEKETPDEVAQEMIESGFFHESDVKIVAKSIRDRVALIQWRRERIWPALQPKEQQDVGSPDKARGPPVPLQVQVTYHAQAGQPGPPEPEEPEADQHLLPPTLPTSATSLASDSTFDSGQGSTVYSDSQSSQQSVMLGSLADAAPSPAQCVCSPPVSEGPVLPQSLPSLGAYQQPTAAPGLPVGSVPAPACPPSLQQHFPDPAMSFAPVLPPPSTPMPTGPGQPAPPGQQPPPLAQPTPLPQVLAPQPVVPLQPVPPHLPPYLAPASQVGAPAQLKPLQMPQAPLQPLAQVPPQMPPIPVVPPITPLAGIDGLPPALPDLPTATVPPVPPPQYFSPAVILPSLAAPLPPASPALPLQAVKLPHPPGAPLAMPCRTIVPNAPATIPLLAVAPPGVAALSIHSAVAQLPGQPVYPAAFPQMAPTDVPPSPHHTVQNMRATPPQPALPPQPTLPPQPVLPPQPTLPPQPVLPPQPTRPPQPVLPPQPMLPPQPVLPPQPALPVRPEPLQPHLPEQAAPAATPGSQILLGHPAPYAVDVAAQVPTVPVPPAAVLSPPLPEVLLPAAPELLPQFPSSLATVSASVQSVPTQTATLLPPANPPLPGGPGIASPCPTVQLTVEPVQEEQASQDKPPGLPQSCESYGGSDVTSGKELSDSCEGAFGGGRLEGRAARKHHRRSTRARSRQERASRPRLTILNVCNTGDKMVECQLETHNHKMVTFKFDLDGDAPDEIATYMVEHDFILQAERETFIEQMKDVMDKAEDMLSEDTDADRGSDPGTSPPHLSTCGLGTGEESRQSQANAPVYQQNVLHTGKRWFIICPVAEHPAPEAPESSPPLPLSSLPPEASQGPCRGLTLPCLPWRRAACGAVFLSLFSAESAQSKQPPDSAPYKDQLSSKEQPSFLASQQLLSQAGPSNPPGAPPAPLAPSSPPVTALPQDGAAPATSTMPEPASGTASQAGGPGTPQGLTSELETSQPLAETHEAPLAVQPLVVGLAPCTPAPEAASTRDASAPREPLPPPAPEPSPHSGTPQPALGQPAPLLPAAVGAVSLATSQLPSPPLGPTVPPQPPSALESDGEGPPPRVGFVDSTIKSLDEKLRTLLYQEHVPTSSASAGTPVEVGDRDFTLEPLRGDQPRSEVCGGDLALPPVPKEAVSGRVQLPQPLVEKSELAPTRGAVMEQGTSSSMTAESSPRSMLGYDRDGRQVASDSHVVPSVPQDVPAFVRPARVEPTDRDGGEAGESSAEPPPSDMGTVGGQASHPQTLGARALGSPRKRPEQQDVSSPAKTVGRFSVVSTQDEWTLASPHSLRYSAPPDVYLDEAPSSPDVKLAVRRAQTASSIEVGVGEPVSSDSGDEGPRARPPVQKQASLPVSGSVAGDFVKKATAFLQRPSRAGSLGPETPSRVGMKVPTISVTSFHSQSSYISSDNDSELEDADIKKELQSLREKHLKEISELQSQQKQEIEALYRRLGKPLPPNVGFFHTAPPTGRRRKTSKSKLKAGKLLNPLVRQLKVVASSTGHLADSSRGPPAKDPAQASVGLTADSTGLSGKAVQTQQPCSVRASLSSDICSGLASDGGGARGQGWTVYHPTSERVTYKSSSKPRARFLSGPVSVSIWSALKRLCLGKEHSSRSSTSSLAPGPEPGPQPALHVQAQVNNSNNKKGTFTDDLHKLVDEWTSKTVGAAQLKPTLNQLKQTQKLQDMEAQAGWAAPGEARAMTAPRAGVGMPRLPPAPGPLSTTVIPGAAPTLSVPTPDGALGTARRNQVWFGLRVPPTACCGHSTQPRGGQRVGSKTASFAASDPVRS
Experiment [7] has as its target Mast/stem cell growth factor receptor Kit (Homo sapiens, UniProt P10721). Briefly: Selectivity interaction (Kinase panel (33PanQinase(R) Activity Assay)) EUB0000877a KIT.
Experiment [8] has as its target 5'-AMP-activated protein kinase catalytic subunit alpha-1 (Homo sapiens, UniProt Q13131). The experiment can be described thus: Selectivity interaction (KinomeScan (DiscoverX)) EUB0001079a PRKAA1. As to conditions: at 1 µM.
For experiment [9], the target named is T1, Serine/threonine-protein kinase 17B (Homo sapiens). Briefly: Selectivity interaction (KinomeScan (DiscoverX)) EUB0001079a STK17B. As to conditions: at 1 µM.
The target in experiment [10] is T3, Ephrin type-B receptor 3 (Homo sapiens) (UniProt P54753).
T3 sequence (whole entry): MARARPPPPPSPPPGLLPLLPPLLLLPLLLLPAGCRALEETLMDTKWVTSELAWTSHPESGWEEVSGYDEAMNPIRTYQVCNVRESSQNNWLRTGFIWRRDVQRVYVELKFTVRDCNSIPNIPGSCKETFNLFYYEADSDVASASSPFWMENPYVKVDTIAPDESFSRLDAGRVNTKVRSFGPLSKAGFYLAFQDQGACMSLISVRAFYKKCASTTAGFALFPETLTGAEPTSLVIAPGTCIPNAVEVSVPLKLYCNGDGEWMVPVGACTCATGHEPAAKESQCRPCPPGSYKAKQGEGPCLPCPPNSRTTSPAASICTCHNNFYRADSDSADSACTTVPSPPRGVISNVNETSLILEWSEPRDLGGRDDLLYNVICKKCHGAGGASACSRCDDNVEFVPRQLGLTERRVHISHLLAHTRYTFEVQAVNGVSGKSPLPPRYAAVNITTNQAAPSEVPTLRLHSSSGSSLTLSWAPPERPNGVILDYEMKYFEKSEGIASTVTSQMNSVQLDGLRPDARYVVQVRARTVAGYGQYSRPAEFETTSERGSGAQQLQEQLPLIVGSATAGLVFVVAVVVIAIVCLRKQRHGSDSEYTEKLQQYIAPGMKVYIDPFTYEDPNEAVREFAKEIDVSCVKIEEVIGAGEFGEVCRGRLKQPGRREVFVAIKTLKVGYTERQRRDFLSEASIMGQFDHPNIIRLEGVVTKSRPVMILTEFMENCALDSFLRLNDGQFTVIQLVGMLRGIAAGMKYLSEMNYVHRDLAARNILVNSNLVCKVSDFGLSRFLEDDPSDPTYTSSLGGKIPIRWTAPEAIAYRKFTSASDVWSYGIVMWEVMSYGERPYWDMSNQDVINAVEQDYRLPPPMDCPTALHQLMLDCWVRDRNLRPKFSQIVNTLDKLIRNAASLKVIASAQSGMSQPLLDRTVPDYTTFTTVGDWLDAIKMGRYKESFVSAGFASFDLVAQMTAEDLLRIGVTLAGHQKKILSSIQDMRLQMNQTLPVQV
Briefly: Selectivity interaction (KinomeScan (DiscoverX)) EUB0000229b EPHB3. The note with it: at 10 µM.

Mitogen-activated protein kinase 4 (Homo sapiens), sequence (P31152 whole entry): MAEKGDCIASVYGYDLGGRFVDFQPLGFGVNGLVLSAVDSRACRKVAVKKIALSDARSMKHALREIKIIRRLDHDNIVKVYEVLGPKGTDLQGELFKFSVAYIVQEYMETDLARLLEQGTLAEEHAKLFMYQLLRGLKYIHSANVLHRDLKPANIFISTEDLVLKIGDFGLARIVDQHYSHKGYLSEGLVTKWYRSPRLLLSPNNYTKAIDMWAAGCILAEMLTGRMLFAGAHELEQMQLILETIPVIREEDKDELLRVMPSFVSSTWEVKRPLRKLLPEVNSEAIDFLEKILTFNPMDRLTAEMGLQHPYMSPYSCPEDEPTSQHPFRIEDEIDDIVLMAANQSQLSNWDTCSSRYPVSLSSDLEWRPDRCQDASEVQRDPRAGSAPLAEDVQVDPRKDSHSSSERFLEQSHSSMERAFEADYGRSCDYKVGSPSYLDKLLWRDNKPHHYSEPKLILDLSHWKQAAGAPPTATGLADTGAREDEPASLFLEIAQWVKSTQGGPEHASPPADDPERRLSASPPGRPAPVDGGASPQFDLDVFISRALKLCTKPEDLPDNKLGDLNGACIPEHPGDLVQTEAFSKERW
5'-AMP-activated protein kinase catalytic subunit alpha-1, sequence (Q13131 whole entry, looked up): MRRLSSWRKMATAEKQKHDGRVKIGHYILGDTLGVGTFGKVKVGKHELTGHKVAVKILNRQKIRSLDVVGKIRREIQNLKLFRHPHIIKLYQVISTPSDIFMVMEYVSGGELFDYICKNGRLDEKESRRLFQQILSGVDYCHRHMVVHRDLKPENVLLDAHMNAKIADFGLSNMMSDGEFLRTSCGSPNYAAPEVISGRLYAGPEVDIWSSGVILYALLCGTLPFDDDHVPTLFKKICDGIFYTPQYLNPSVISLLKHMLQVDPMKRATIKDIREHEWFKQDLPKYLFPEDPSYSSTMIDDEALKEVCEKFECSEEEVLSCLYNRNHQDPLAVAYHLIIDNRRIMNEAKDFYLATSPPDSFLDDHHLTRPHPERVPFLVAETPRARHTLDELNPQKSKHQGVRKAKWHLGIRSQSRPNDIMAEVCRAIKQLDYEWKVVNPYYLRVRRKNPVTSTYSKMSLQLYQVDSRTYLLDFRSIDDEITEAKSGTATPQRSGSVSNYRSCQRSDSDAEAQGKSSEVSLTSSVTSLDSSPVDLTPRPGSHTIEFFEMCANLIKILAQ
Proto-oncogene tyrosine-protein kinase receptor Ret, sequence (P07949 whole entry): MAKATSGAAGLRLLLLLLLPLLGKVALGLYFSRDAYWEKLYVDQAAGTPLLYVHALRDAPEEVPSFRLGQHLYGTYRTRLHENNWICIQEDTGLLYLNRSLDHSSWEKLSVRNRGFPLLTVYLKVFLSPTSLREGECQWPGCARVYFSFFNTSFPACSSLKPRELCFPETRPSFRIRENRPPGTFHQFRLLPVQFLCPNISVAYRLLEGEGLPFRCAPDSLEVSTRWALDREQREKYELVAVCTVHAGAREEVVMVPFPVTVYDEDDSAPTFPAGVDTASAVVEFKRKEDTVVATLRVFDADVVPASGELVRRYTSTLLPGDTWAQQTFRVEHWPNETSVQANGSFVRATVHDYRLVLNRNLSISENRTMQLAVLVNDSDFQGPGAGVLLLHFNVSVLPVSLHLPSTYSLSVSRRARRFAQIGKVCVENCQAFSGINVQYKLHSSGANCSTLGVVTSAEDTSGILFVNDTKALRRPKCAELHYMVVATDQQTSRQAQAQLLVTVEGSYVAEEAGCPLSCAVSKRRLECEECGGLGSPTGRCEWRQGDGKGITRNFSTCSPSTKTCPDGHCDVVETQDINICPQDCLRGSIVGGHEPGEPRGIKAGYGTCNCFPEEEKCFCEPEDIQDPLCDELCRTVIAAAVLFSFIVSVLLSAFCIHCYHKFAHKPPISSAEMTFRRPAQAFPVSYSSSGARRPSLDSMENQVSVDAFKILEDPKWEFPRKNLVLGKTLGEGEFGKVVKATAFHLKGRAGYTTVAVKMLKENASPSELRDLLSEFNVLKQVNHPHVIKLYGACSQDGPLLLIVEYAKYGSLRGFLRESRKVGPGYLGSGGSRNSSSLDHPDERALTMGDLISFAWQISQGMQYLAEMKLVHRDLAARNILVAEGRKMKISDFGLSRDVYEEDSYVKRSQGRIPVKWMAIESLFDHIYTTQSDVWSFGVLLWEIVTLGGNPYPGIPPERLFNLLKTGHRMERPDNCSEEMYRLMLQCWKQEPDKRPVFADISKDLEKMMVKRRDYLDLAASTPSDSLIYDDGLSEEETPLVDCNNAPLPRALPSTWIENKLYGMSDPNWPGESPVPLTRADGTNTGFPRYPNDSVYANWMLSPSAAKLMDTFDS

In the case of `CCN(CC)CCCCNc1ncc2cc(-c3cc(OC)cc(OC)c3)c(NC(=O)NC(C)(C)C)nc2n1`, in experiment [1], the % of control worked out at 100%. Molecule `O=C(NOC[C@H](O)CO)c1ccc(F)c(F)c1Nc1ccc(I)cc1F` gave a % of control in experiment [2] of 100%. Turning to `CC[C@@H]1[C@H](F)C(=O)N[C@@H]1COc1nccc2cc(C(N)=O)c(OC)cc12` [ZIMLOVISERTIB], in experiment [3], the % of inhibition is -4.6%. In the case of `C=CC(=O)Nc1cccc(C(=O)Nc2ccc(Nc3cc(-c4[nH]c(SC)nc4C)ccn3)cc2)c1`, the % of control in experiment [4] (at 1 µM) is 44%; in [4] (at 5 µM), 15%. The pIC50 is −log10 of the IC50, conventionally taken in molar units. Higher therefore signals a small IC50. With `CCc1cccc(CC)c1NC(=O)c1nn(C)c2c1CCc1cnc(Nc3ccc(C(=O)NC4CCN(C)CC4)cc3OC(F)(F)F)nc1-2`, the pIC50 in [5] was < 5.00. In experiment [6], `COc1cc(Nc2nc(C)cc(-c3cnn4nc(OC)ccc34)n2)cc(C(F)(F)F)c1` yielded a % of control of 100%. As for `CCC(=O)N1CC[C@H](Nc2ncnc3c2CN(c2cnc(OC)c(C(F)(F)F)c2)CC3)C1` [LENIOLISIB], the pIC50 in experiment [7] is < 5.00. `Nc1cnc(N2CCc3cc(S(=O)(=O)Nc4c(F)cc(Cl)cc4F)cc(N4CCCC4=O)c32)nc1` [TP-020n]: the % of control in experiment [8] and in experiment [9] was 100% throughout. In [10], `COc1cc(N(C)c2ccnc3ccc(C(F)(F)F)cc23)cc(OC)c1OC` had a % binding of 85%.

The values are drawn from ChEMBL document CHEMBL5465560, “Selectivity Literature for EUbOPEN Chemogenomic Library” (2024).
